The subject of the test is Plasmodium berghei. The test is described as follows: Luciferase/luciferin-expressing antifolate-resistant parasites were used to infect a culture of HepG2 cells that were pre-incubated with compounds. Infected hepatocytes emit light due to the luciferase reaction. Assay results are presented as the percent inhibition of light emission compared to control. […]. The format is functional. The note with it: sporozoite; for IC90: read-out: LUCIFERASE INFECTION ASSAY - IC90.

Broadly, the IC50 is the concentration at which inhibition is half-maximal. In general, IC90 refers to the concentration at which the effect reaches the 90% level. On to `O=c1c(Cl)c(Cl)cnn1Cc1nnc(-c2ccc(Cl)cc2)o1`, for which the IC90 was more than 10 µM. For the same compound, where the note is “FFLUC_HILL_SLOPE 3.65, FFLUC_R_SQUARED 0.9, HEPG2TOX_HILL_SLOPE 4.48, HEPG2TOX_R_SQUARED 0.522, PBLUC_HILL_SLOPE 7.32, PBLUC_R_SQUARED 0.182, read-out: LUCIFERASE INFECTION ASSAY - IC50”, the IC50 worked out at 7.44 µM.

In the case of `CCCS(=O)(=O)c1cnc(C2COc3ccccc3O2)nc1N` (centres undefined), the IC90 was determined as 1.07 µM. Also, for the setting “FFLUC_HILL_SLOPE 3.81, FFLUC_R_SQUARED 0.729, PBLUC_HILL_SLOPE 0.615, PBLUC_R_SQUARED 0.774, read-out: LUCIFERASE INFECTION ASSAY - IC50”, the IC50 worked out at 0.0301 µM.

On to `COc1ccc(CN2C(=O)c3ccccc3C(/C=N\OCc3ccc(F)cc3)C2=O)cc1` (centres undefined), for which the IC90 was more than 7.63 µM. Besides, where the note is “FFLUC_HILL_SLOPE 3.53, FFLUC_R_SQUARED 0.589, read-out: LUCIFERASE INFECTION ASSAY - IC50”, the IC50 is more than 7.63 µM.

For `COC(=O)c1ccc(CSc2nnc(NC(=O)c3ccccc3[N+](=O)[O-])s2)cc1`, the IC90 is 0.0537 µM. In addition, where the note is “FFLUC_HILL_SLOPE 3.72, FFLUC_R_SQUARED 0.492, PBLUC_HILL_SLOPE 2.08, PBLUC_R_SQUARED 0.667, read-out: LUCIFERASE INFECTION ASSAY - IC50”, the IC50 was 0.0187 µM.

Take `Cc1cc(-n2c(C)cc(C(=O)Cn3ncc(Cl)c(Cl)c3=O)c2C)ccc1Br`: the IC90 is 5.84 µM. Under “FFLUC_HILL_SLOPE 3.61, FFLUC_R_SQUARED 0.511, HEPG2TOX_HILL_SLOPE 4.93, HEPG2TOX_R_SQUARED 0.864, PBLUC_HILL_SLOPE 65.8, PBLUC_R_SQUARED 0.0361, read-out: LUCIFERASE INFECTION ASSAY - IC50”, the IC50 stood at 5.65 µM.

For `COC(=O)c1c(NC(=O)c2ccoc2)c2cc(NCC3CC=CCC3)cnc2n1CC(C)C` (centres undefined), the IC90 is more than 7.32 µM. For the same compound, the IC50 (FFLUC_HILL_SLOPE 3.67, FFLUC_R_SQUARED 0.106, read-out: LUCIFERASE INFECTION ASSAY - IC50) was more than 7.32 µM.

As for `Cc1cc(C2=NNC(=CN3CCc4sccc4C3c3cccs3)O2)c(C)o1` (centres undefined), the IC90 was more than 10 µM. In addition, the IC50 (FFLUC_HILL_SLOPE 3.77, FFLUC_R_SQUARED 0.256, read-out: LUCIFERASE INFECTION ASSAY - IC50) was more than 10 µM.

Regarding `CNC(=O)c1ccc(CN(C2CC2)S(=O)(=O)c2cc([N+](=O)[O-])cc(C)c2C)cc1`, the IC90 is more than 10 µM. For the same compound, the IC50 (FFLUC_HILL_SLOPE 3.59, FFLUC_R_SQUARED 0.192, PBLUC_HILL_SLOPE 1.6, PBLUC_R_SQUARED 0.527, read-out: LUCIFERASE INFECTION ASSAY - IC50) was determined as 5.04 µM.

In the case of `Cc1cccc(C)c1NC(=O)N1[C@@H]2CC[C@@H](C2)[C@H]1c1nc2c(OCCC3CCCCC3)cccc2[nH]1`, the IC90 is more than 10 µM. Besides, the IC50 (FFLUC_HILL_SLOPE 3.83, FFLUC_R_SQUARED 0.822, PBLUC_HILL_SLOPE 12.1, PBLUC_R_SQUARED 0.296, read-out: LUCIFERASE INFECTION ASSAY - IC50) worked out at 9.48 µM.

Regarding `Cc1ccc(C(=O)NCc2nsc(=N/C(=N\c3ccccc3)c3ccccc3)n2Cc2ccccc2)cc1`, the IC90 was more than 10 µM. For the same compound, the IC50 (FFLUC_HILL_SLOPE 3.57, FFLUC_R_SQUARED 0.485, HEPG2TOX_HILL_SLOPE 6.57, HEPG2TOX_R_SQUARED 0.579, PBLUC_HILL_SLOPE 15.6, PBLUC_R_SQUARED 0.234, read-out: LUCIFERASE INFECTION ASSAY - IC50) came out at 8.74 µM.

`CN(CC(=O)Nc1nc(C23CC4CC(CC(C4)C2)C3)cs1)S(=O)(=O)c1cccs1`: the IC90 worked out at 3.45 µM. In addition, the IC50 (FFLUC_HILL_SLOPE 3.68, FFLUC_R_SQUARED 0.43, PBLUC_HILL_SLOPE 112, PBLUC_R_SQUARED 0.327, read-out: LUCIFERASE INFECTION ASSAY - IC50) is 3.38 µM.

Consider `Cc1onc(-c2ccc(Cl)cc2)c1-c1ccnc(SCC(=O)Nc2ccc(Cl)cc2)n1`, for which the IC90 is more than 7 µM. Besides, the IC50 (FFLUC_HILL_SLOPE 3.87, FFLUC_R_SQUARED 0.391, HEPG2TOX_HILL_SLOPE 3.01, HEPG2TOX_R_SQUARED 0.647, PBLUC_HILL_SLOPE 15.9, PBLUC_R_SQUARED 0.148, read-out: LUCIFERASE INFECTION ASSAY - IC50) turned out to be 6.77 µM.

With `Cc1ccc2c(c1)/C(=N\NC(=O)c1nc(Cl)c(Cl)c(N)c1Cl)C(=O)N2`, the IC90 is more than 10 µM. Besides, for the setting “FFLUC_HILL_SLOPE 3.8, FFLUC_R_SQUARED 0.785, read-out: LUCIFERASE INFECTION ASSAY - IC50”, the IC50 is more than 10 µM.

Take `Cc1ccc(-c2csc(NC(=O)C3CCN(c4ncnc5sc(C)c(C)c45)CC3)n2)cc1`: the IC90 was 1.74 µM. The half-inhibitory concentration (IC50) (FFLUC_HILL_SLOPE 3.71, FFLUC_R_SQUARED 0.648, HEPG2TOX_HILL_SLOPE 2.17, HEPG2TOX_R_SQUARED 0.62, PBLUC_HILL_SLOPE 8.52, PBLUC_R_SQUARED 0.61, read-out: LUCIFERASE INFECTION ASSAY - IC50) is 1.35 µM.

Take `O=C1COc2ccc(-c3cs/c(=N\CCc4ccccc4)n3/N=C/c3ccc4ncccc4c3)cc2N1`: the IC90 is more than 10 µM. Also, the IC50 (FFLUC_HILL_SLOPE 3.55, FFLUC_R_SQUARED 0.719, HEPG2TOX_HILL_SLOPE 3.57, HEPG2TOX_R_SQUARED 0.945, read-out: LUCIFERASE INFECTION ASSAY - IC50) was more than 10 µM.

Turning to `CCOc1ccc(NC(=S)N/N=C2/C(=O)Nc3c(Cl)cc(Cl)cc32)cc1`, the IC90 came to 1.16 µM. Moreover, the IC50 (FFLUC_HILL_SLOPE 3.63, FFLUC_R_SQUARED 0.721, HEPG2TOX_HILL_SLOPE 1.01, HEPG2TOX_R_SQUARED 0.763, PBLUC_HILL_SLOPE 15.5, PBLUC_R_SQUARED 0.598, read-out: LUCIFERASE INFECTION ASSAY - IC50) was 1 µM.

Regarding `Oc1c2n(c(=S)n1-c1ccc(Cl)cc1)CCS2`, the IC90 was more than 11.6 µM. Besides, where the note is “FFLUC_HILL_SLOPE 3.58, FFLUC_R_SQUARED 0.45, PBLUC_HILL_SLOPE 7.55, PBLUC_R_SQUARED 0.0946, read-out: LUCIFERASE INFECTION ASSAY - IC50”, the IC50 turned out to be 10.5 µM.

Turning to `Cc1c(-c2ccccc2)oc2c(C(=O)NCc3ccc(Cn4cccn4)cc3)cccc2c1=O`, the 90% effect concentration (IC90) is more than 10 µM. For the same compound, the IC50 (FFLUC_HILL_SLOPE 3.81, FFLUC_R_SQUARED 0.0734, PBLUC_HILL_SLOPE 3.95, PBLUC_R_SQUARED 0.349, read-out: LUCIFERASE INFECTION ASSAY - IC50) came to 7.72 µM.

For `Cc1ccc2oc(-c3ccc(C(C)(C)C)cc3)nc2c1`, the IC90 came to 5.53 µM. In addition, for the setting “FFLUC_HILL_SLOPE 3.61, FFLUC_R_SQUARED 0.123, HEPG2TOX_HILL_SLOPE 7.09, HEPG2TOX_R_SQUARED 0.0328, PBLUC_HILL_SLOPE 0.728, PBLUC_R_SQUARED 0.843, read-out: LUCIFERASE INFECTION ASSAY - IC50”, the concentration for half-maximal inhibition (IC50) turned out to be 0.271 µM.

Consider `CSc1ccccc1N1C(=O)C=CC1=O`, for which the IC90 is 10.8 µM. Where the note is “FFLUC_HILL_SLOPE 3.57, FFLUC_R_SQUARED 0.584, HEPG2TOX_HILL_SLOPE 8.7, HEPG2TOX_R_SQUARED 0.127, PBLUC_HILL_SLOPE 6.46, PBLUC_R_SQUARED 0.572, read-out: LUCIFERASE INFECTION ASSAY - IC50”, the IC50 stood at 7.7 µM.

As to `CCCn1c(SCC(=O)Nc2cc(S(=O)(=O)N(CC)c3ccccc3)ccc2Cl)nc2ccccc2c1=O`, the IC90 was more than 10 µM. Also, the IC50 (FFLUC_HILL_SLOPE 3.64, FFLUC_R_SQUARED 0.239, PBLUC_HILL_SLOPE 6.57, PBLUC_R_SQUARED 0.539, read-out: LUCIFERASE INFECTION ASSAY - IC50) amounted to 8.45 µM.

As to `CCN(CC)c1ccc(/C=C2\CCc3cnn(-c4nc(-c5ccccc5)cs4)c32)cc1`, the IC90 is more than 10 µM. The IC50 (FFLUC_HILL_SLOPE 3.85, FFLUC_R_SQUARED 0.639, read-out: LUCIFERASE INFECTION ASSAY - IC50) is more than 10 µM.

On to `CC(C)N1C(=O)/C(=N\NC(=S)NC2CCCCC2)c2ccccc21`, for which the IC90 is more than 10 µM. The IC50 (FFLUC_HILL_SLOPE 3.74, FFLUC_R_SQUARED 0.413, HEPG2TOX_HILL_SLOPE 6.6, HEPG2TOX_R_SQUARED 0.125, read-out: LUCIFERASE INFECTION ASSAY - IC50) was more than 10 µM.

For the compound `Cc1cc(C)c(C)c(S(=O)(=O)N2CCC(C(=O)Nc3cc(S(=O)(=O)Nc4ccc(Cl)cc4)ccc3N3CCOCC3)CC2)c1C`, the IC90 amounted to 3.69 µM. For the same compound, under “FFLUC_HILL_SLOPE 3.74, FFLUC_R_SQUARED 0.802, PBLUC_HILL_SLOPE 15.7, PBLUC_R_SQUARED 0.403, read-out: LUCIFERASE INFECTION ASSAY - IC50”, the IC50 came to 3.21 µM.

In the case of `CCN(CC)S(=O)(=O)c1cc([N+](=O)[O-])ccc1NN=CC1C(=O)N(c2ccc(C)cc2)C(=O)c2ccccc21` (centres undefined), the concentration for an effect of 90% (IC90) was more than 10 µM. Under “FFLUC_HILL_SLOPE 3.56, FFLUC_R_SQUARED 0.6, HEPG2TOX_HILL_SLOPE 2.69, HEPG2TOX_R_SQUARED 0.936, PBLUC_HILL_SLOPE 15.5, PBLUC_R_SQUARED 0.0701, read-out: LUCIFERASE INFECTION ASSAY - IC50”, the IC50 was determined as 9.71 µM.

With `O=C(/N=c1\sc(-c2ccccc2)c(-c2ccccc2)n1CCc1ccccc1)c1ccccc1`, the IC90 is more than 10 µM. Further, for the setting “FFLUC_HILL_SLOPE 3.75, FFLUC_R_SQUARED 0.66, PBLUC_HILL_SLOPE 10.4, PBLUC_R_SQUARED 0.195, read-out: LUCIFERASE INFECTION ASSAY - IC50”, the concentration for half-maximal inhibition (IC50) was 8.64 µM.

Consider `C=C(C)CSc1nc2cc(-c3ccc(C)cc3)sc2c(=O)n1Cc1ccccc1`, for which the IC90 is more than 10 µM. Further, the IC50 (FFLUC_HILL_SLOPE 3.73, FFLUC_R_SQUARED 0.533, read-out: LUCIFERASE INFECTION ASSAY - IC50) is more than 10 µM.

These data come from ChEMBL document CHEMBL4483862, “Open-source discovery of chemical leads for next-generation chemoprotective antimalarials” (2018).
